# From PubChem BioAssay (NCI)
#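 Where inhibition never reached the appropriate level, the endpoint shown equals the highest concentration tested. Otherwise, values were interpolated linearly from a five-concentration, 48-hour dose response in 96-well plates. TGI denotes the concentration required for complete inhibition of growth.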
# What was measured:
# Experiment in all cases: NCI-60 cell line screen, 48 h
# 786-0 renal = tested on: 786-0 renal
# A498 renal = tested on: A498 renal
# A549 NSCLC = tested on: A549 NSCLC
# ACHN renal = tested on: ACHN renal
# BT-549 breast = tested on: BT-549 breast
# CAKI-1 renal = tested on: CAKI-1 renal
# CCRF-CEM leukemia = tested on: CCRF-CEM leukemia
# COLO 205 colon = tested on: COLO 205 colon
# DU-145 prostate = tested on: DU-145 prostate
# EKVX NSCLC = tested on: EKVX NSCLC
# HCC-2998 colon = tested on: HCC-2998 colon
# HCT-116 colon = tested on: HCT-116 colon
# HCT-15 colon = tested on: HCT-15 colon
# HL-60(TB) leukemia = tested on: HL-60(TB) leukemia
# HOP-62 NSCLC = tested on: HOP-62 NSCLC
# HOP-92 NSCLC = tested on: HOP-92 NSCLC
# HS 578T breast = tested on: HS 578T breast
# HT29 colon = tested on: HT29 colon
# IGROV1 ovarian = tested on: IGROV1 ovarian
# K-562 leukemia = tested on: K-562 leukemia
# KM12 colon = tested on: KM12 colon
# LOX IMVI melanoma = tested on: LOX IMVI melanoma
# M14 melanoma = tested on: M14 melanoma
# MALME-3M melanoma = tested on: MALME-3M melanoma
# MCF7 breast = tested on: MCF7 breast
# MDA-MB-231 breast = tested on: MDA-MB-231 breast
# MDA-MB-435 = tested on: MDA-MB-435
# MDA-N = tested on: MDA-N
# MOLT-4 leukemia = tested on: MOLT-4 leukemia
# NCI-H226 lung = tested on: NCI-H226 lung
# NCI-H23 lung = tested on: NCI-H23 lung
# NCI-H460 lung = tested on: NCI-H460 lung
# NCI-H522 lung = tested on: NCI-H522 lung
# NCI/ADR-RES ovarian = tested on: NCI/ADR-RES ovarian
# OVCAR-3 ovarian = tested on: OVCAR-3 ovarian
# OVCAR-4 ovarian = tested on: OVCAR-4 ovarian
# OVCAR-5 ovarian = tested on: OVCAR-5 ovarian
# OVCAR-8 ovarian = tested on: OVCAR-8 ovarian
# PC-3 prostate = tested on: PC-3 prostate
# RPMI-8226 leukemia = tested on: RPMI-8226 leukemia
# RXF 393 renal = tested on: RXF 393 renal
# SF-268 CNS = tested on: SF-268 CNS
# SF-295 CNS = tested on: SF-295 CNS
# SF-539 CNS = tested on: SF-539 CNS
# SK-MEL-2 melanoma = tested on: SK-MEL-2 melanoma
# SK-MEL-28 melanoma = tested on: SK-MEL-28 melanoma
# SK-MEL-5 melanoma = tested on: SK-MEL-5 melanoma
# SK-OV-3 ovarian = tested on: SK-OV-3 ovarian
# SN12C renal = tested on: SN12C renal
# SNB-19 CNS = tested on: SNB-19 CNS
# SNB-75 CNS = tested on: SNB-75 CNS
# SW-620 colon = tested on: SW-620 colon
# T-47D breast = tested on: T-47D breast
# TK-10 renal = tested on: TK-10 renal
# U251 CNS = tested on: U251 CNS
# UACC-257 melanoma = tested on: UACC-257 melanoma
# UACC-62 melanoma = tested on: UACC-62 melanoma
# UO-31 renal = tested on: UO-31 renal
# SR leukemia = tested on: SR leukemia
compound,measurement,setting,value
Cc1c2c(OCCN3CCCCC3)nn(C)c(=O)c2c(C)n1-c1ccccc1,TGI,786-0 renal,36.7 µM
same,TGI,A498 renal,36.9 µM
same,TGI,A549 NSCLC,> 100 µM
same,TGI,ACHN renal,> 100 µM
same,TGI,BT-549 breast,> 100 µM
same,TGI,CAKI-1 renal,> 100 µM
same,TGI,CCRF-CEM leukemia,> 100 µM
same,TGI,COLO 205 colon,35.5 µM
same,TGI,DU-145 prostate,> 100 µM
same,TGI,EKVX NSCLC,> 100 µM
same,TGI,HCC-2998 colon,65.3 µM
same,TGI,HCT-116 colon,> 100 µM
same,TGI,HCT-15 colon,> 100 µM
same,TGI,HL-60(TB) leukemia,> 100 µM
same,TGI,HOP-62 NSCLC,> 100 µM
same,TGI,HOP-92 NSCLC,> 100 µM
same,TGI,HS 578T breast,> 100 µM
same,TGI,HT29 colon,> 100 µM
same,TGI,IGROV1 ovarian,> 100 µM
same,TGI,K-562 leukemia,> 100 µM
same,TGI,KM12 colon,> 100 µM
same,TGI,LOX IMVI melanoma,51.1 µM
same,TGI,M14 melanoma,33.4 µM
same,TGI,MALME-3M melanoma,35.3 µM
same,TGI,MCF7 breast,> 100 µM
same,TGI,MDA-MB-231 breast,> 100 µM
same,TGI,MDA-MB-435,> 100 µM
same,TGI,MDA-N,> 100 µM
same,TGI,MOLT-4 leukemia,> 100 µM
same,TGI,NCI-H226 lung,> 100 µM
same,TGI,NCI-H23 lung,> 100 µM
same,TGI,NCI-H460 lung,> 100 µM
same,TGI,NCI-H522 lung,84.1 µM
same,TGI,NCI/ADR-RES ovarian,> 100 µM
same,TGI,OVCAR-3 ovarian,> 100 µM
same,TGI,OVCAR-4 ovarian,> 100 µM
same,TGI,OVCAR-5 ovarian,> 100 µM
same,TGI,OVCAR-8 ovarian,> 100 µM
same,TGI,PC-3 prostate,> 100 µM
same,TGI,RPMI-8226 leukemia,95.1 µM
same,TGI,RXF 393 renal,> 100 µM
same,TGI,SF-268 CNS,> 100 µM
same,TGI,SF-295 CNS,47.9 µM
same,TGI,SF-539 CNS,74.9 µM
same,TGI,SK-MEL-2 melanoma,33.1 µM
same,TGI,SK-MEL-28 melanoma,84.7 µM
same,TGI,SK-MEL-5 melanoma,32.1 µM
same,TGI,SK-OV-3 ovarian,> 100 µM
same,TGI,SN12C renal,> 100 µM
same,TGI,SNB-19 CNS,> 100 µM
same,TGI,SNB-75 CNS,> 100 µM
same,TGI,SW-620 colon,> 100 µM
same,TGI,T-47D breast,> 100 µM
same,TGI,TK-10 renal,> 100 µM
same,TGI,U251 CNS,> 100 µM
same,TGI,UACC-257 melanoma,42.6 µM
same,TGI,UACC-62 melanoma,> 100 µM
same,TGI,UO-31 renal,29.1 µM
Cc1ccc2nc(-c3ccc(N4C(=O)C(Cl)C4c4ccc(Cl)cc4)cc3)sc2c1 (centres undefined),TGI,786-0 renal,56.9 µM
same,TGI,A549 NSCLC,36.9 µM
same,TGI,ACHN renal,50.7 µM
same,TGI,BT-549 breast,> 100 µM
same,TGI,CAKI-1 renal,35.6 µM
same,TGI,CCRF-CEM leukemia,36.7 µM
same,TGI,COLO 205 colon,27.8 µM
same,TGI,DU-145 prostate,> 100 µM
same,TGI,EKVX NSCLC,19.9 µM
same,TGI,HCT-116 colon,59.4 µM
same,TGI,HCT-15 colon,81.5 µM
same,TGI,HL-60(TB) leukemia,> 100 µM
same,TGI,HOP-62 NSCLC,61.7 µM
same,TGI,HOP-92 NSCLC,18.9 µM
same,TGI,HS 578T breast,66.8 µM
same,TGI,HT29 colon,4.02 µM
same,TGI,K-562 leukemia,60.2 µM
same,TGI,KM12 colon,> 100 µM
same,TGI,LOX IMVI melanoma,18.7 µM
same,TGI,M14 melanoma,57 µM
same,TGI,MALME-3M melanoma,> 100 µM
same,TGI,MCF7 breast,32.7 µM
same,TGI,MDA-MB-231 breast,33 µM
same,TGI,MDA-MB-435,36.6 µM
same,TGI,MDA-N,40.9 µM
same,TGI,NCI-H226 lung,36 µM
same,TGI,NCI-H23 lung,53.7 µM
same,TGI,NCI-H460 lung,46.2 µM
same,TGI,NCI/ADR-RES ovarian,39.3 µM
same,TGI,OVCAR-3 ovarian,40.1 µM
same,TGI,OVCAR-4 ovarian,8.38 µM
same,TGI,OVCAR-5 ovarian,45.3 µM
same,TGI,OVCAR-8 ovarian,81.1 µM
same,TGI,PC-3 prostate,36.8 µM
same,TGI,RPMI-8226 leukemia,38.6 µM
same,TGI,SF-268 CNS,68 µM
same,TGI,SF-295 CNS,32.1 µM
same,TGI,SF-539 CNS,35.3 µM
same,TGI,SK-MEL-28 melanoma,31.5 µM
same,TGI,SK-MEL-5 melanoma,28.2 µM
same,TGI,SK-OV-3 ovarian,28 µM
same,TGI,SN12C renal,53.6 µM
same,TGI,SNB-19 CNS,> 100 µM
same,TGI,SR leukemia,57.9 µM
same,TGI,SW-620 colon,48 µM
same,TGI,T-47D breast,> 100 µM
same,TGI,TK-10 renal,38.1 µM
same,TGI,U251 CNS,42.4 µM
same,TGI,UACC-257 melanoma,47.7 µM
same,TGI,UACC-62 melanoma,31.3 µM
same,TGI,UO-31 renal,45.8 µM
